Test results taken from patent US12286418B2, “Compounds and methods for treating or preventing bacterial infections” (priority 2019, dated 2025).

How the values were obtained:
E. coli MG1655 = assay: Accumulation assay in E. coli (LC-MS/MS); type: cell-based; settings: wildtype E. coli MG1655, 10 minutes incubation
Procedure: For the accumulation assay, the protocol from Richter, et al., 2017, Nature 545:299-304 was followed. An overnight culture of bacteria grown in LB Lennox, was inoculated into fresh media and grown to an OD600 of 0.5-0.6. Cells were pelleted, resuspended in 1× phosphate-buffered saline (PBS) and then incubated with the compound of interest for 10 minutes at 37°. After incubation, the OD600 was recorded to note if compounds affected cell growth and then the cultures were centrifuged down through a 9:1 mixture of silicone oil (viscosity=20 cST) to high temperature silicone oil which was cooled at −80°. Cell pellets were isolated and lysed by 3 cycles of freeze-thawing using liquid nitrogen and a 65° water bath. The cell lysate was isolated from the cell debris (in water and methanol) and then analyzed via mass spectrometry. […] Multiple reaction monitoring (MRM) was used to quantify these compounds. […] The concentrations of these compounds were calculated on the basis of their corresponding standard curves.
To determine the colony forming units (CFU) per mL based on the OD600, the OD600 of E. coli MG1655 culture in LB-Lennox was measured then the culture was diluted and plated to count colonies. Based on this, the CFU per mL for 1 O.D.600 (for MG1655 cells grown in LB-Lennox) was determined to be approximately 2.15×10^8 and this value was used for accumulation calculations. […]

OXA-58 = target: T1, OXA-58 (Acinetobacter baumannii, UniProt Q2TR58); assay: Inhibition of other OXA enzymes (nitrocefin reporter): OXA-58; type: biochemical
T1 construct: His-tag (N, cleaved yes); made in house; host or cells: E. coli BL21 (DE3), pET28a
Procedure: (§1) Compounds were tested for inhibition of a given OXA enzyme from hydrolyzing nitrocefin using a Tecan plate reader. […] A control with no compound was included in each run. For each compound concentration, the velocity of nitrocefin hydrolysis was determined at 482 nm and fit to the Morrison equation. […] The average Ki of separate experiments, each of which consisted of duplicate runs, is reported and error was quantified as the standard deviation.
(§2) The high sequence diversity of class D β-lactamases has made it difficult to find a class-wide inhibitor. The inhibition activity of CDD-97 was tested against other OXA-enzymes of varying sequence identity, to assess its spectrum of activity (Table 2). OXA-10 is regarded as the canonical OXA, however it is not a major clinical threat as it mainly hydrolyzes penicillins. OXA-58 is another carbapenemase unable to hydrolyze extended-spectrum cephalosporins like OXA-48. Both OXA-48 and OXA-58 are predominantly found in gram-negative bacteria, however OXA-48 is prevalent in the Enterobacteriaceae family (mainly Klebsiella pneumoniae), while OXA-58 is found in the Moraxellaceae family (mainly Acintobacter baumannii). While K. pneumoniae is more rampant in the clinics and most OXA-mediated carbapenem is due to OXA-48, A. baumannii nosocomial infections are a growing issue. OXA-163 is an OXA-48 like enzyme also prevalent in Enterobacteriaceae. […]

OXA-163 = OXA-163 (Klebsiella pneumoniae, UniProt Q6XEC0, DEL214-217/S212D); assay: Inhibition of other OXA enzymes (nitrocefin reporter): OXA-163; type: biochemical, Enterobacteriaceae
Procedure: as §1, §2

T1 sequence (Q2TR58 19-280): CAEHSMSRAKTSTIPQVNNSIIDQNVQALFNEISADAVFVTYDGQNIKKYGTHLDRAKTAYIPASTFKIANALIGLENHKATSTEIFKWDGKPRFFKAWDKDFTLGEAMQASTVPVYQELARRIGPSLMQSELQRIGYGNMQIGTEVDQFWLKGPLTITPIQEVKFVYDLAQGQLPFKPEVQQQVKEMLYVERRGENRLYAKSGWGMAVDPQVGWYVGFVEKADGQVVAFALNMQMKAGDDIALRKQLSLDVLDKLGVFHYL
Sequence of OXA-163 (Q6XEC0 23-211, added parts left off, stated change not applied): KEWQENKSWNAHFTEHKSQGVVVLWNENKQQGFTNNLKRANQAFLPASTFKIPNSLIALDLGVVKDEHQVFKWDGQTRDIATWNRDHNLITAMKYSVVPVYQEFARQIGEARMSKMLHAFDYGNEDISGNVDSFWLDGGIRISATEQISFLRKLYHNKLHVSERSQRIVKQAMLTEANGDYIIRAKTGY

`CCOc1ccccc1N1CCN(c2ncnc(N3CCC(C(=O)O)CC3)n2)CC1` [CDD-97, 1-(4-(4-(2-ethoxyphenyl)piperazin-1-yl)-1,3,5-triazin-2-yl)piperidine-4-carboxylic acid] was tested, and the “accumulation in cells, fold lower levels compared to tetracycline” value (E. coli MG1655) was 20 fold, the Ki (OXA-58) was 45 ± 0.8 µM and the “Ki fold less potent than against OXA-48” value (OXA-58; OXA-58 vs OXA-48) was “about 100 fold”. For the same compound, the Ki (OXA-163) was 0.44 ± 0.02 µM.
